Reference: US6911469B2, “Sulfonamide compounds and pharmaceutical use thereof” (Fujisawa Pharmaceutical Co., Ltd., priority 1997, dated 2005)

Compound | melting point
CCCCCS(=O)(=O)NC(=O)c1cc(C)c2nc(CC)n(Cc3ccc(Cl)cc3Cl)c2n1 [Example 15, 3-(2,4-dichlorobenzyl)-2-ethyl-7-methyl-5-(n-pentanesulfonylcarbamoyl)-3H-imidazo[4,5-b]pyridine] | 178 to 180 °C
CCCCCS(=O)(=O)NC(=O)c1ccc2nc(C)n(Cc3ccc(Br)cc3Cl)c2n1 [Example 12-1, 3-(4-bromo-2-chlorobenzyl)-2-methyl-5-(n-pentanesulfonylcarbamoyl)-3H-imidazo[4,5-b]pyridine] | 183 to 184 °C
CCCCCS(=O)(=O)NC(=O)c1ccc2nc(C)n(Cc3ccc(Cl)cc3Cl)c2n1 [Example 8-1, 3-(2,4-dichlorobenzyl)-2-methyl-5-(n-pentanesulfonylcarbamoyl)-3H-imidazo[4,5-b]pyridine] | 174 to 175 °C
CSc1ccc(Cn2c(C)nc3ccc(C(=O)NS(=O)(=O)c4ccc(Br)s4)nc32)c(Cl)c1 [Example 150, 3-[2-chloro-4-(methylthio)benzyl]-5-[(5-bromothiophen-2-yl)sulfonylcarbamoyl]-2-methyl-3H-imidazo[4,5-b]pyridine] | 169 to 170 °C
CCCCCS(=O)(=O)NC(=O)c1ccc2nc(C)n(Cc3ccc(SC)cc3Cl)c2n1 [Example 151, 3-(2-chloro-4-(methylthio)benzyl)-2-methyl-5-(1-pentanesulfonylcarbamoyl)-3H-imidazo[4,5-b]pyridine] | 184 to 185 °C
CCCCCS(=O)(=O)NC(=O)c1ccc2sc(C)c(Cc3cccc(Cl)c3Cl)c2c1 [Example 2, 3-(2,3-dichlorobenzyl)-2-methyl-5-(n-pentanesulfonylcarbamoyl)benzo[b]thiophene] | 196 to 197 °C
Cc1cc(C(=O)NS(=O)(=O)c2ccccc2)nc2c1nc(C)n2Cc1ccc2ccccc2c1Br [Example 104-2, 5-(benzenesulfonylcarbamoyl)-3-(1-bromonaphthalen-2-ylmethyl)-2,7-dimethyl-3H-imidazo[4,5-b]pyridine] | 229 to 230 °C
Cc1nc2ccc(C(=O)NS(=O)(=O)c3ccccc3)nc2n1Cc1ccc(CC2CCCCC2)cc1Cl [Example 75, 5-(benzenesulfonylcarbamoyl)-3-(2-chloro-4-(cyclohexylmethyl)benzyl)-2-methyl-3H-imidazo[4,5-b]pyridine] | 170 to 171 °C
Cc1nc(=O)c2ccc(C(=O)NS(=O)(=O)c3ccccc3)cc2n1Cc1ccc(Cl)cc1Cl [Example 47-2, 7-(benzenesulfonylcarbamoyl)-1-(2,4-dichlorobenzyl)-2-methyl-4(1H)-quinazolinone] | 214 to 216 °C
CCCCCS(=O)(=O)NC(=O)c1ccc2nc(C)n(Cc3ccc(CC)cc3Cl)c2n1 [Example 70-1, 3-(2-chloro-4-ethylbenzyl)-2-methyl-5-(1-pentanesulfonylcarbamoyl)-3H-imidazo[4,5-b]pyridine] | 138 to 139 °C
Cc1nc2ccc(C(=O)NS(=O)(=O)c3ccc(Br)s3)nc2n1Cc1ccc(-c2ccccc2)cc1Cl [Example 67-5, 5-[(5-bromothiophen-2-yl)sulfonylcarbamoyl]-3-(2-chloro-4-phenylbenzyl)-2-methyl-3H-imidazo[4,5-b]pyridine] | 205 to 207 °C
Cc1cc(C(=O)NS(=O)(=O)c2ccccc2)c2oc(Cc3ccc(Cl)cc3Cl)c(C)c2c1 [Example 31-2, 7-(benzenesulfonylcarbamoyl)-2-(2,4-dichlorobenzyl)-3,5-dimethylbenzo[b]furan] | 214 to 215 °C
Cc1nc2ccc(C(=O)NS(=O)(=O)c3ccccc3)nc2n1Cc1ccc(OCCN(C)c2ccccn2)cc1Cl [Example 82, 5-(benzenesulfonylcarbamoyl)-3-(2-chloro-4-((2-(N-methyl-N-(2-pyridinyl)amino)ethyl)oxy)benzyl)-2-methyl-3H-imidazo[4,5-b]pyridine] | 104 to 105 °C
CSc1ccc(Cn2c(C)nc3ccc(C(=O)NS(=O)(=O)c4ccccc4)nc32)c(Cl)c1 [Example 83, 5-(benzenesulfonylcarbamoyl)-3-(2-chloro-4-(methylthio)benzyl)-2-methyl-3H-imidazo[4,5-b]pyridine] | 165 to 166 °C
Cc1nc2ccc(C(=O)NS(=O)(=O)/C=C/c3ccccc3)nc2n1Cc1ccc(Cl)cc1Cl [Example 65-3, (E)-3-(2,4-dichlorobenzyl)-2-methyl-5-[(2-phenylethenyl)sulfonylcarbamoyl]-3H-imidazo[4,5-b]pyridine] | 192 to 194 °C
CCCCS(=O)(=O)NC(=O)c1ccc2nc(C)n(Cc3ccc(Cl)cc3Cl)c2n1 [Example 8-2, 5-(n-butanesulfonylcarbamoyl)-3-(2,4-dichlorobenzyl)-2-methyl-3H-imidazo[4,5-b]pyridine] | 153 to 154 °C
CCCCCS(=O)(=O)NC(=O)c1ccc2nc(C)n(Cc3ccc(-c4ccccc4)cc3)c2n1 [Example 11, 2-methyl-5-(n-pentanesulfonyl-carbamoyl)-3-(4-phenylbenzyl)-3H-imidazo[4,5-b]pyridine] | 170 to 171 °C

Compound | melting point
Cc1nc2ccc(C(=O)NS(=O)(=O)c3ccccc3)nc2n1Cc1ccc(OCC2CCCCC2)cc1Cl [Example 81, 5-(benzenesulfonylcarbamoyl)-3-(2-chloro-4-((cyclohexylmethyl)oxy)benzyl)-2-methyl-3H-imidazo[4,5-b]pyridine] | 122 to 125 °C
Cc1ccc(Cn2c(C)nc3ccc(C(=O)NS(=O)(=O)c4ccccc4)nc32)c(Cl)c1 [Example 72, 5-(benzenesulfonylcarbamoyl)-3-(2-chloro-4-methylbenzyl)-2-methyl-3H-imidazo[4,5-b]pyridine] | 213 to 215 °C
Cc1nc2ccc(C(=O)NS(=O)(=O)c3ccccc3)nc2n1Cc1ccc(OCc2ccccc2)cc1Cl [Example 77, 5-(benzenesulfonylcarbamoyl)-3-(4-benzyloxy-2-chlorobenzyl)-2-methyl-3H-imidazo[4,5-b]pyridine] | 190 to 191 °C
Cc1nc2ccc(C(=O)NS(=O)(=O)c3ccccc3)nc2n1Cc1ccc(CCc2ccccc2)cc1Cl [Example 113, 5-(benzenesulfonylcarbamoyl)-3-(2-chloro-4-(2-phenylethyl)benzyl)-2-methyl-3H-imidazo[4,5-b]pyridine] | 180 to 181 °C
Cc1cc(C(=O)NS(=O)(=O)/C=C/c2ccccc2)nc2c1nc(C)n2Cc1ccc2ccccc2c1Br [Example 104-3, (E)-3-(1-bromonaphthalen-2-ylmethyl)-2,7-dimethyl-5-((2-phenylethenyl)sulfonylcarbamoyl)-3H-imidazo[4,5-b]pyridine] | 262 to 263 °C
CCCCCS(=O)(=O)NC(=O)c1ccc2nc(C)n(Cc3ccc(Cl)cc3C)c2n1 [Example 28-1, 3-(4-chloro-2-methylbenzyl)-2-methyl-5-(n-pentanesulfonylcarbamoyl)-3H-imidazo[4,5-b]pyridine] | 155 to 157 °C
CCCCCS(=O)(=O)NC(=O)c1ccc2sc(C)c(Cc3ccc(Cl)c(Cl)c3)c2c1 [Example 1, 3-(3,4-dichlorobenzyl)-2-methyl-5-(n-pentanesulfonyl-carbamoyl)benzo[b]thiophene] | 159 to 160 °C
Cc1nc2ccc(C(=O)NS(=O)(=O)c3ccccc3)nc2n1Cc1ccc(OC(C)C)cc1Cl [Example 79, 5-(benzenesulfonylcarbamoyl)-3-(2-chloro-4-isopropoxybenzyl)-2-methyl-3H-imidazo[4,5-b]pyridine] | 177 to 179 °C
Cc1nc2ccc(C(=O)NS(=O)(=O)/C=C/c3ccccc3)nc2n1Cc1ccc(Br)cc1Cl [Example 66-1, (E)-3-(4-bromo-2-chlorobenzyl)-2-methyl-5-[(2-phenylethenyl)sulfonylcarbamoyl]-3H-imidazo[4,5-b]pyridine] | 204 to 205 °C
Cc1nc2ccc(C(=O)NS(=O)(=O)c3ccccc3)cn2c1Cc1ccc(Cl)cc1Cl [Example 56, 6-(benzenesulfonylcarbamoyl)-3-(2,4-dichlorobenzyl)-2-methylimidazo[1,2-a]pyridine] | 308 to 310 °C
Cc1nc2ccc(C(=O)NS(=O)(=O)c3ccccc3)nc2n1Cc1ccc(COc2ccccc2)cc1Cl [Example 118, 5-(benzenesulfonylcarbamoyl)-3-(2-chloro-4-((phenyloxy)methyl)-benzyl)-2-methyl-3H-imidazo[4,5-b]pyridine] | 203 to 205 °C
Cc1nc2ccc(C(=O)NS(=O)(=O)c3ccccc3)nc2n1Cc1ccc(CO)cc1Cl [Example 115, 5-(Benzenesulfonylcarbamoyl)-3-(2-chloro-4-(hydroxymethyl)benzyl)-2-methyl-3H-imidazo[4,5-b]pyridine] | 198 to 199 °C
Cc1nc2ccc(C(=O)NS(=O)(=O)c3ccc(Cl)s3)nc2n1Cc1ccc(C(F)(F)F)cc1Cl [Example 109-3, 3-(2-chloro-4-(trifluoromethyl)-benzyl)-5-((5-chlorothiophen-2-yl)sulfonylcarbamoyl)-2-methyl-3H-imidazo[4,5-b]pyridine] | 170 to 171 °C
CCc1ccc(Cn2c(C)nc3ccc(C(=O)NS(=O)(=O)/C=C/c4ccccc4)nc32)c(Cl)c1 [Example 70-4, (E)-3-(2-chloro-4-ethylbenzyl)-2-methyl-5-[(2-phenylethenyl)sulfonylcarbamoyl]-3H-imidazo[4,5-b]pyridine] | 184 to 185 °C
Cc1nc2ccc(C(=O)NS(=O)(=O)c3ccccc3)nc2n1Cc1ccc(C=C2SC(=O)NC2=O)cc1Cl [Example 93, 5-(benzenesulfonylcarbamoyl)-3-[2-chloro-4-[(2,4-dioxo-1,3-thiazolidine-5-ylidene)methyl]benzyl]-2-methyl-3H-imidazo[4,5-b]pyridine] | 271 to 274 °C
Cc1cc(C(=O)NS(=O)(=O)c2ccc(Br)s2)nc2c1nc(C)n2Cc1ccc2ccccc2c1Br [Example 112, 3-(1-bromonaphthalen-2-ylmethyl)-5-((5-bromothiophene-2-yl)sulfonylcarbamoyl)-2,7-dimethyl-3H-imidazo[4,5-b]pyridine] | 247 to 248 °C
CCCCCS(=O)(=O)NC(=O)c1ccc2sc(C)c(Cc3cc(Cl)ccc3Cl)c2c1 [Example 3, 3-(2,5-dichlorobenzyl)-2-methyl-5-(n-pentanesulfonylcarbamoyl)benzo[b]thiophene] | 147 to 148 °C
